Data taken from PubChem BioAssay (NCI).
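Results reflect a 48-hour exposure of cells in 96-well plates to compound at five concentrations. GI50: concentration for 50% inhibition of growth. TGI: concentration producing complete growth inhibition.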

What was measured:
Experiment in all cases: inhibition of tumour cell growth, NCI panel, 48 h
MALME-3M melanoma = tested on: MALME-3M melanoma
IGROV1 ovarian = tested on: IGROV1 ovarian
HOP-62 NSCLC = tested on: HOP-62 NSCLC
HT29 colon = tested on: HT29 colon
RXF 393 renal = tested on: RXF 393 renal
HL-60(TB) leukemia = tested on: HL-60(TB) leukemia
786-0 renal = tested on: 786-0 renal
UACC-62 melanoma = tested on: UACC-62 melanoma
MDA-MB-435 = tested on: MDA-MB-435
COLO 205 colon = tested on: COLO 205 colon
UACC-257 melanoma = tested on: UACC-257 melanoma

Structure (SMILES)	TGI (MALME-3M melanoma)	TGI (IGROV1 ovarian)	TGI (HOP-62 NSCLC)	TGI (HT29 colon)	TGI (RXF 393 renal)	TGI (HL-60(TB) leukemia)	TGI (786-0 renal)	TGI (UACC-62 melanoma)	TGI (MDA-MB-435)	TGI (COLO 205 colon)	TGI (UACC-257 melanoma)	GI50 (MALME-3M melanoma)	GI50 (IGROV1 ovarian)	GI50 (HOP-62 NSCLC)	GI50 (HT29 colon)	GI50 (UACC-62 melanoma)
COc1cccc(C(=O)C#Cc2cnc(OC)nc2OC)c1	3.23 µM	2.12 µM	47.8 µM	2.67 µM	1.39 µM	5.92 µM	3.61 µM	3.08 µM	5.24 µM	3.88 µM	6.42 µM					
COc1cc(O)c2c(=O)c(OC)c(-c3ccc(OC)c(OC)c3)oc2c1	> 100 µM	> 100 µM	> 100 µM	> 100 µM		> 100 µM		> 100 µM	> 100 µM	> 100 µM	> 100 µM	> 100 µM	> 100 µM	58.5 µM	> 100 µM	> 100 µM
Cc1cc(NS(=O)(=O)c2ccc(NC(=O)c3cccc4c(Nc5ccc(S(N)(=O)=O)cc5)c5ccccc5nc34)cc2)no1	> 100 µM		> 100 µM	> 100 µM	> 100 µM	> 100 µM		> 100 µM			> 100 µM					
C=C(C)[C@@H]1CC[C@]2(C(=O)OC)CC[C@]3(C)[C@H](CC[C@@H]4[C@@]5(C)CC[C@H](O)C(C)(C)[C@@H]5CC[C@]43C)[C@@H]12	53 µM	42.2 µM	41.3 µM	60 µM	38.9 µM	> 100 µM	45.9 µM		42.5 µM		38.3 µM					
O=c1[nH]c(Nc2nc3ccccc3[nH]2)nc(O)c1Cc1ccccc1	> 100 µM	> 100 µM		> 100 µM		> 100 µM	> 100 µM	> 100 µM	> 100 µM	> 100 µM	> 100 µM					
CC(=O)OCC1OC(OCCCOP(=S)(OCCC#N)OCC2OC(n3ccc(N)nc3=O)C(OC(=O)c3ccccc3)C2OC(=O)c2ccccc2)C(OC(C)=O)C(OC(C)=O)C1OC(C)=O (centres undefined)	> 100 µM	> 100 µM	> 100 µM	> 100 µM	> 100 µM		> 100 µM	> 100 µM	> 100 µM	> 100 µM	> 100 µM					
CN(CCCNC(=O)c1cc(-c2ccccc2)nc2ccccc12)CCCNC(=O)c1cc(-c2ccccc2)nc2ccccc12	3.39 µM	13.7 µM	4.13 µM	3.46 µM	16 µM	4.7 µM	3.18 µM	4.31 µM	3.17 µM	3.14 µM	3.34 µM					
CCN(CCN(CC)C(=O)Nc1ccccc1)C(=O)Nc1ccccc1	> 100 µM	> 100 µM	> 100 µM	> 100 µM	> 100 µM	> 100 µM	> 100 µM	> 100 µM		> 100 µM	> 100 µM					
O=C1Cc2c([nH]c3ccc(C(=O)O)cc23)-c2ccccc2N1	> 100 µM	> 100 µM	> 100 µM	> 100 µM		> 100 µM	> 100 µM	> 100 µM	> 100 µM	> 100 µM	> 100 µM					
CC[C@@]1(O)C(=O)OCc2c1cc1n(c2=O)Cc2c-1nc1ccccc1c2/C=N\NC(=O)C(N)CCSC (some centres undefined)	14.5 µM	5.63 µM				2.66 µM	1.92 µM	< 0.043 µM	3.58 µM	18.5 µM	2.45 µM					
